According to PubChem BioAssay (NCI):
Where “and” joins values, the source holds several entries; their conditions need not be identical. Identical values can stand only once.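 In this assay, cells in 96-well plates receive the compound at five concentrations for 48 hours. Endpoints are linearly interpolated between the surrounding concentrations. The concentration for 50% growth inhibition is given as GI50. TGI is the concentration that stops growth completely.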

Key:
Assay in all cases: growth of human tumour cells (NCI), 48 h
[1] = system: 786-0 renal
[2] = system: A498 renal
[3] = system: CAKI-1 renal
[4] = system: DU-145 prostate
[5] = system: EKVX NSCLC
[6] = system: MCF7 breast
[7] = system: RPMI-8226 leukemia
[8] = system: RXF 393 renal
[9] = system: SNB-75 CNS
[10] = system: UACC-62 melanoma

Row | SMILES | GI50 [1] | TGI [1] | GI50 [2] | TGI [2] | GI50 [3] | TGI [3] | GI50 [4] | TGI [4] | GI50 [5] | TGI [5] | GI50 [6] | TGI [6] | GI50 [7] | TGI [7] | GI50 [8] | TGI [8] | GI50 [9] | TGI [9] | GI50 [10] | TGI [10]
1 | O=C(Nc1ccc(Oc2cccc(F)c2)c(Cl)c1)c1cnccn1 | 3.03 µM | > 50 µM | 3.77 µM | 43.3 µM | 2.13 µM | > 50 µM | 2 µM | > 50 µM | 2.67 µM | > 50 µM | 0.413 µM | > 50 µM | 1.79 µM | > 50 µM | 1.23 µM | 3.72 µM | 1.06 µM | 4.22 µM | 2.72 µM | > 50 µM
2 | COc1ccc(N(/C=C/C(=O)C(F)(F)F)CC(=O)c2ccc(F)cc2)cc1 | 21.1 µM | 52.4 µM | 14.2 µM | 37.8 µM | 21.7 µM | 72.1 µM | 36.2 µM | > 100 µM | 25.4 µM | > 100 µM | 43.1 µM | > 100 µM | 15.2 µM | 47.3 µM | 28.8 µM | 77.4 µM | > 100 µM | > 100 µM | 12 µM | 38.3 µM
3 | Cc1nn(-c2ccc([N+](=O)[O-])cc2)c2ncnc(N/N=C/c3ccccc3O)c12 | 0.539 µM | 3.41 µM | 2.92 µM | > 66.9 µM | 0.496 µM | 1.82 µM | 0.382 µM | > 100 µM | 2.41 µM | > 100 µM | 0.36 µM | > 100 µM | 0.619 µM | > 100 µM | 0.366 µM | 1.62 µM | 0.554 µM | 4.23 µM | 0.986 µM | 3.76 µM
4 | N#Cc1nc2c(S(=O)(=O)c3ccc(Cl)cc3)c(N)n(CCCN3CCOCC3)c2nc1C#N | 17.3 µM | 52.8 µM | 2.6 µM | 14.6 µM | 2.64 µM | 13.8 µM | 3.79 µM | 19.1 µM | 10.6 µM | 22.7 µM | 3.76 µM | 16.5 µM | 4.68 µM | 41 µM | 1.05 µM | 5.21 µM | 11.1 µM | 48.3 µM | 10.8 µM | 31.1 µM
5 | C[C@]12CC[C@@H]3c4ccc(O)cc4CC[C@H]3[C@@H]1Cc1cnc(N)nc12 | 23.3 µM | 59.3 µM |  |  | 23.8 µM | 49.8 µM | 17.8 µM | 47.3 µM | 9.47 µM | 34.9 µM | 18.8 µM | 47.7 µM | 12.7 µM | 31.4 µM | 11.5 µM | 31.3 µM | 16.5 µM | 42.9 µM | 13.6 µM | 27.2 µM
6 | Cc1ccc(-c2csc(NC(=O)N3CCN(c4cc5c(cc4F)c(=O)c(C(=O)O)cn5C4CC4)CC3)n2)cc1 | 0.471 µM | 37.5 µM | 0.572 µM | 9.16 µM |  |  | 0.428 µM | > 100 µM | 1.49 µM | > 100 µM | 0.49 µM | > 100 µM | 0.378 µM | 1.9 µM | 0.602 µM | 55 µM | 0.289 µM | 9.55 µM | 0.63 µM | 6.29 µM
7 | O=C1C(SCCO)=C(SCCO)C(=O)N1c1ccc(-c2ccccc2)cc1 | 1.33 µM | 2.84 µM | 18 µM | 37.9 µM | 0.644 µM | 1.79 µM | 3.59 µM | 8.94 µM | 9.5 µM | 23.3 µM | 2.17 µM | 7.74 µM | 0.845 µM | 4.6 µM | 1.19 µM | 2.73 µM | 4.1 µM | 11.1 µM | 6.34 µM | 19 µM
8 | Nc1ncnc2c1c(-c1ccc(Oc3ccccc3)cc1)nn2C[C@@H]1SSC[C@H]1O | 2.41 µM | 8.31 µM | 2.18 µM | 5.53 µM | 2.18 µM | 10.5 µM | 2.26 µM | 8.97 µM | 0.568 µM | 10.5 µM | 0.898 µM | 3.79 µM | 5.58 µM | 31.8 µM | 1.82 µM | 5.18 µM | 4.25 µM | > 33.4 µM | 0.264 µM | 0.882 µM
9 | COC(=O)C1=C(C)NC(C)=C(C(=O)OCC(C)C)C1c1ccccc1[N+](=O)[O-] (centres undefined) | 3.55 µM | 12.6 µM | 10.7 µM | 23.7 µM | 2.29 µM | 11 µM | 5.48 µM | 34.7 µM | 8.06 µM | 32.7 µM | 3.58 µM | 16.1 µM | 3.25 µM | 25.8 µM | 2.11 µM | 8.31 µM | 2.44 µM | 15.2 µM | 2.28 µM | 11.2 µM
10 | O=c1c(O)c(-c2ccc(O)c(O)c2)oc2cc(O)cc(O)c12 | 21.9 µM | > 100 µM | 7.11 µM | 24.2 µM and > 100 µM | 20.4 µM | > 100 µM | 20 µM | > 100 µM | 23.9 µM | > 100 µM | 7.95 µM | > 100 µM | 10.2 µM | 86.9 µM | 11.7 µM | 50.9 µM and > 100 µM | 4.42 µM | 39.2 µM and > 100 µM | 4.74 µM | 25.5 µM and > 100 µM
11 | COc1ccc(C(=O)/C=C/c2cccc(Nc3ccnc4cc(Cl)ccc34)c2)cc1 | 1.48 µM | 4.27 µM | 3 µM | 55.3 µM |  |  | 2.45 µM | > 100 µM | 1.75 µM | > 100 µM | 1.82 µM | > 100 µM | 0.572 µM | 13.8 µM | 1.82 µM | 5.17 µM | 1.51 µM | 4.12 µM |  | 
12 | CN(C)C(=O)c1cnc2oc3ccc(O)cc3c2c1-c1ccccc1 | > 25 µM | > 25 µM |  |  | > 25 µM | > 25 µM | > 25 µM | > 25 µM | > 25 µM | > 25 µM | > 25 µM | > 25 µM | > 25 µM | > 25 µM | > 25 µM | > 25 µM | 11.7 µM | > 25 µM |  | 
13 | COc1ccc(CC(=O)c2ccc(O)cc2O)cc1 | > 100 µM | > 100 µM | 29.3 µM | > 100 µM | 59.6 µM | > 100 µM | > 100 µM | > 100 µM | 47.7 µM | > 100 µM | > 100 µM | > 100 µM | 34 µM | > 100 µM | > 100 µM | > 100 µM | > 100 µM | > 100 µM | 93 µM | > 100 µM
14 | Cc1nn(-c2ccc(Cl)cc2)c2nc3c(nc12)C(=O)C(=O)c1ccccc1-3 | 5.39 µM | 25.9 µM | 1.27 µM | 2.96 µM | 7.93 µM | > 100 µM | 1.98 µM | 3.57 µM | 7.36 µM | > 100 µM | 27.9 µM | > 100 µM | 5.65 µM | > 100 µM | 19.7 µM | 64.6 µM | 1.66 µM | 4.3 µM | 8.45 µM | 34.4 µM
15 | COc1cc(/C=C/C(=O)c2ccc(F)cc2)ccc1OCCCN1CCN(CC(=O)Nc2ccc(Cl)cc2C(=O)c2ccccc2Cl)CC1 | 3.86 µM | 15.2 µM | 29.4 µM | > 100 µM | 11 µM | 32.5 µM | 29.8 µM | > 100 µM | 31.3 µM | > 100 µM | 2.69 µM | 12.1 µM | 2 µM | 5.46 µM | 2.84 µM | 15.8 µM | 6.05 µM | 34.1 µM | 10.4 µM | 22.9 µM
16 | Cc1nn(C)c(COc2ccc(N3CCN(S(=O)(=O)N(C)C)CC3)cc2)c1-c1cccc2c(CCCOc3cccc4ccccc34)c(C(=O)O)n(CCN3CCOCC3)c12 | 2.52 µM | 6.97 µM | 2.3 µM | 6.59 µM | 11.4 µM | 23.9 µM | 5.03 µM | 16.7 µM | 3.59 µM | 15 µM | 2.84 µM | 11 µM |  |  | 2.72 µM | 6.98 µM | 2.11 µM | 10.5 µM |  | 
17 | CC1=C(C(=O)N(C)c2ccc(Cl)c(C(=O)OC(C)C)c2)SCCO1 |  | > 100 µM |  | > 100 µM |  | > 100 µM |  | > 100 µM |  | > 100 µM |  | > 100 µM |  | > 100 µM |  |  |  | 90.8 µM |  | > 100 µM
18 | CCN1C(=O)N(CC)C2C1NN=c1s/c(=C\c3ccccn3)c(=O)n12 (centres undefined) | 4.7 µM | > 100 µM | 0.184 µM | 2.74 µM | 0.752 µM | > 100 µM | 2.4 µM | > 100 µM | 4.45 µM | > 100 µM | 0.468 µM | > 100 µM | 1.71 µM | > 100 µM | 1.66 µM | 5.86 µM |  |  | 0.833 µM | > 100 µM
19 | NCCN.O=C([O-])CN1CCOCC1.[OH-].[Pt+4] | > 100 µM | > 100 µM | > 100 µM | > 100 µM | > 100 µM | > 100 µM | > 100 µM | > 100 µM | > 100 µM | > 100 µM | > 100 µM | > 100 µM |  |  | > 100 µM | > 100 µM | > 100 µM | > 100 µM | > 100 µM | > 100 µM
